Read-outs that look alike come from different tables or passages of the source.
Key:
[1] = test system: Escherichia coli NCTC 8196; assay: Determination of the Minimum Inhibitory Concentration (MIC value) in microtitre plates, Escherichia coli; format: cell-based; conditions: for MIC: Escherichia coli, NCTC8196, 48 h, read-out: MIC [μg/ml] EC
Experimental: (§1) Determination of the Minimum Inhibitory Concentration (MIC Value) in Microtitre Plates
Casein-soybean flour-peptone broth for preparation of pre-cultures of test bacteria and yeast. […]
Escherichia coli NCTC 8196
(§2) The test substances are pre-dissolved in dimethyl sulfoxide (DMSO) and tested in a dilution series of 1:2.
(§3) The bacteria are cultured overnight in CASO broth and washed off using 10 ml of 0.85% sodium chloride solution (+0.1% Triton X-100).
(§4) All the test organisms are adjusted to an organism count of 1-5×10^6 CFU/ml using 0.85% sodium chloride solution.
(§5) The test substances are pre-pipetted into microtitre plates in amounts of 8 μl per well.
(§6) Pre-diluted test organism suspensions are diluted 1:100 in CASO broth.
(§7) The test batches are incubated for 48 hours at 37° C.
(§8) After incubation, the growth is determined on the basis of the turbidity of the test batches (optical density) at 620 nm in a microplate reader.
(§9) The minimum inhibitory concentration (MIC value) is the concentration of substance at which there is found (compared to the growth of the control) an appreciable inhibition of growth (≦20% growth) of the test organisms.
(§10) One microtitre plate is used for each test organism and substance concentration.
(§11) All the substances are tested in duplicate.

[2] = test system: Staphylococcus hominis DSM 20328; assay: Determination of the Minimum Inhibitory Concentration (MIC value) in microtitre plates, Staphylococcus hominis; format: cell-based; conditions: Staphylococcus hominis, DSM20328, 48 h, read-out: MIC [μg/ml] SH
Experimental: as §1
Casein-soybean flour-peptone broth for preparation of pre-cultures of test bacteria and yeast.
Staphylococcus hominis DSM 20328 […]
as §2, §3, §4, §5, §6, §7, §8, §9, §10, §11

[3] = Escherichia coli NCTC 8196, CASO broth, 48 hours at 37° C., MIC = ≦20% growth (optical density at 620 nm)
[4] = Staphylococcus hominis DSM 20328, CASO broth, 48 hours at 37° C., MIC = ≦20% growth (optical density at 620 nm)

Row | SMILES | MIC [1, 3] [µg/mL] | MIC [2, 4] [µg/mL] | MIC [μg/ml] EC [1, 3] [µg/mL] | MIC [1] [µg/mL] | MIC [2] [µg/mL]
1 | CCCCCCCCCCCCOc1ccc(CN2CCCCC2)cc1OC [Compound of formula (3)] | > 120 | 3.75 |  |  | 
2 | CCCCCCCCCCCCOc1ccc(CN2CCCC2)cc1OC [Compound of formula (4)] |  |  | 30 |  | 
3 | CCCCCCOc1ccc(CN2CCCCC2)cc1OC [Compound of formula (5)] | > 120 | > 120 |  |  | 
4 | CCCCCCOc1ccc(CN2CCCC2)cc1OC [Compound of formula (6)] | > 120 | > 120 |  |  | 
5 | CCCCCCCCCCCCOc1ccc(CN(C)CCc2ccccn2)cc1OC [Compound of formula (7)] | > 120 | 60 |  |  | 
6 | CCCCCCCCCCCCOc1ccc(CN2CCOCC2)cc1OC [Compound of formula (8)] | > 120 | > 120 |  |  | 
7 | CCCCCCCCCCCCOc1ccc(CN(C)CCCC)cc1OC [Compound of formula (9)] | > 120 | 15 |  |  | 
8 | CCCCCCCCCCCCOc1ccc(CN2CCCCCC2)cc1OC [Compound of formula (10)] | > 120 | 3.75 |  |  | 
9 | CCCCCCCCCCCCOc1ccc(CN(C(C)C)C(C)C)cc1OC [Compound of formula (11)] | > 120 | > 120 |  |  | 
10 | CCCCCCCCCCCCOc1ccc(CN2CCN(C)CC2)cc1OC [Compound of formula (12)] | 120 | 3.75 |  |  | 
11 | CCCCCCCCCCCCOc1ccc(CN(CC)CC)cc1OC [Compound of formula (13)] | > 120 | 3.75 |  |  | 
12 | CCCCCCCCCCCCOc1ccc(CN2CCN(C(C)=O)CC2)cc1OC [Compound of formula (14)] | > 120 | > 120 |  |  | 
13 | CCCCCCCCCCCCOc1ccc(CN(C)Cc2ccccc2)cc1OC [Compound of formula (15)] | > 120 | 15 |  |  | 
14 | CCCCCCCCCCCCOc1ccc(CN(C)CCCCCC)cc1OC [Compound of formula (16)] | > 120 | 120 |  |  | 
15 | CCCCCCCCCCCCOc1ccc(CN2CCN(CC)CC2)cc1OC [Compound of formula (17)] | > 120 | 7.5 |  |  | 
16 | CCCCCCCCCCCCOc1ccc(CN2CCCC2)cc1OC [Compound of formula (18)] | 15 | 3.75 |  |  | 
17 | CCCCCCCCCCCCOc1ccc(CN(C)CCCCCCCCCCCC)cc1OC [Compound of formula (19)] | > 120 | > 120 |  |  | 
18 | CCCCCCCCCCCCOc1ccc(CN(C)C)cc1OC [Compound of formula (20)] | 15 | 7.5 |  |  | 
19 | CCCCCCCCCCCCOc1ccc(CN2CCNCC2)cc1OC [Compound of formula (21)] | > 120 | > 120 |  |  | 
20 | CCCCCCCCCCCCOc1ccc(CN2CCN(c3cccc(OC)c3)CC2)cc1OC [Compound of formula (22)] | > 120 | > 120 |  |  | 
21 | CCCCCCOc1ccc(CN(C)CCc2ccccn2)cc1OC [Compound of formula (23)] | > 120 | 60 |  |  | 
22 | CCCCCCOc1ccc(CN2CCOCC2)cc1OC [Compound of formula (24)] | > 120 | > 120 |  |  | 

Row | SMILES | MIC [1, 3] [µg/mL] | MIC [2, 4] [µg/mL] | MIC [μg/ml] EC [1, 3] [µg/mL] | MIC [1] [µg/mL] | MIC [2] [µg/mL]
23 | CCCCCCOc1ccc(CN(C)CCCC)cc1OC [Compound of formula (25)] | > 120 | > 120 |  |  | 
24 | CCCCCCOc1ccc(CN2CCCCCC2)cc1OC [Compound of formula (26)] | > 120 | > 120 |  |  | 
25 | CCCCCCOc1ccc(CN(C(C)C)C(C)C)cc1OC [Compound of formula (27)] | > 120 | > 120 |  |  | 
26 | CCCCCCOc1ccc(CN2CCN(C)CC2)cc1OC [Compound of formula (28)] |  |  |  | > 120 | > 120
27 | CCCCCCOc1ccc(CN(CC)CC)cc1OC [Compound of formula (29)] | > 120 | > 120 |  |  | 
28 | CCCCCCOc1ccc(CN2CCN(C(C)=O)CC2)cc1OC [Compound of formula (30)] | > 120 | > 120 |  |  | 
29 | CCCCCCOc1ccc(CN(C)Cc2ccccc2)cc1OC [Compound of formula (31)] | > 120 | > 120 |  |  | 
30 | CCCCCCOc1ccc(CN(C)CCCCCC)cc1OC [Compound of formula (32)] | 7.5 | 60 |  |  | 
31 | CCCCCCOc1ccc(CN2CCN(CC)CC2)cc1OC [Compound of formula (33)] |  |  |  | > 120 | > 120
32 | CCCCCCCCCCCCN(C)Cc1ccc(OCCCCCC)c(OC)c1 [Compound of formula (35)] | > 120 | 15 |  |  | 
33 | CCCCCCOc1ccc(CN(C)C)cc1OC [Compound of formula (36)] | > 120 | > 120 |  |  | 
34 | CCCCCCOc1ccc(CN2CCNCC2)cc1OC [Compound of formula (37)] |  |  |  | > 120 | > 120
35 | CCCCCCOc1ccc(CN2CCN(c3cccc(OC)c3)CC2)cc1OC [Compound of formula (38)] | > 120 | > 120 |  |  | 
36 | CCCCCCCCOc1ccc(CN(C)CCc2ccccn2)cc1OC [Compound of formula (39)] | > 120 | 120 |  |  | 
37 | CCCCCCCCOc1ccc(CN2CCOCC2)cc1OC [Compound of formula (40)] | > 120 | > 120 |  |  | 
38 | CCCCCCCCOc1ccc(CN(C)CCCC)cc1OC [Compound of formula (41)] | 15 | 15 |  |  | 
39 | CCCCCCCCOc1ccc(CN2CCCCCC2)cc1OC [Compound of formula (42)] | 15 | 15 |  |  | 
40 | CCCCCCCCOc1ccc(CN(C(C)C)C(C)C)cc1OC [Compound of formula (43)] | > 120 | > 120 |  |  | 
41 | CCCCCCCCOc1ccc(CN2CCN(C)CC2)cc1OC [Compound of formula (44)] | 120 | 120 |  |  | 
42 | CCCCCCCCOc1ccc(CN(CC)CC)cc1OC [Compound of formula (45)] | 120 | 120 |  |  | 
43 | CCCCCCCCOc1ccc(CN2CCN(C(C)=O)CC2)cc1OC [Compound of formula (46)] | 120 | > 120 |  |  | 
44 | CCCCCCCCOc1ccc(CN(C)Cc2ccccc2)cc1OC [Compound of formula (47)] | > 120 | > 120 |  |  | 

Row | SMILES | MIC [1, 3] [µg/mL] | MIC [2, 4] [µg/mL] | MIC [μg/ml] EC [1, 3] [µg/mL] | MIC [1] [µg/mL] | MIC [2] [µg/mL]
45 | CCCCCCCCOc1ccc(CN(C)CCCCCC)cc1OC [Compound of formula (48)] | > 120 | 120 |  |  | 
46 | CCCCCCCCOc1ccc(CN2CCN(CC)CC2)cc1OC [Compound of formula (49)] | 120 | 60 |  |  | 
47 | CCCCCCCCOc1ccc(CN2CCCC2)cc1OC [Compound of formula (50)] | 60 | 60 |  |  | 
48 | CCCCCCCCCCCCN(C)Cc1ccc(OCCCCCCCC)c(OC)c1 [Compound of formula (51)] | > 120 | > 120 |  |  | 
49 | CCCCCCCCOc1ccc(CN(C)C)cc1OC [Compound of formula (52)] | 120 | 120 |  |  | 
50 | CCCCCCCCOc1ccc(CN2CCNCC2)cc1OC [Compound of formula (53)] |  |  |  | > 120 | > 120
51 | CCCCCCCCOc1ccc(CN2CCCCC2)cc1OC [Compound of formula (54)] | 30 | 60 |  |  | 
52 | CCCOc1ccc(CN(C)CCc2ccccn2)cc1OC [Compound of formula (55)] | > 120 | > 120 |  |  | 
53 | CCCOc1ccc(CN2CCOCC2)cc1OC [Compound of formula (56)] | > 120 | 120 |  |  | 
54 | CCCCN(C)Cc1ccc(OCCC)c(OC)c1 [Compound of formula (57)] | 120 | > 120 |  |  | 
55 | CCCOc1ccc(CN2CCCCCC2)cc1OC [Compound of formula (58)] | > 120 | 120 |  |  | 
56 | CCCOc1ccc(CN(C(C)C)C(C)C)cc1OC [Compound of formula (59)] | > 120 | > 120 |  |  | 
57 | CCCOc1ccc(CN2CCN(C)CC2)cc1OC [Compound of formula (60)] |  |  |  | > 120 | > 120
58 | CCCOc1ccc(CN(CC)CC)cc1OC [Compound of formula (61)] | > 120 | > 120 |  |  | 
59 | CCCOc1ccc(CN2CCN(C(C)=O)CC2)cc1OC [Compound of formula (62)] | > 120 | > 120 |  |  | 
60 | CCCOc1ccc(CN(C)Cc2ccccc2)cc1OC [Compound of formula (63)] | > 120 | > 120 |  |  | 
61 | CCCCCCN(C)Cc1ccc(OCCC)c(OC)c1 [Compound of formula (64)] | > 120 | > 120 |  |  | 
62 | CCCOc1ccc(CN2CCN(CC)CC2)cc1OC [Compound of formula (65)] |  |  |  | > 120 | > 120
63 | CCCOc1ccc(CN2CCCC2)cc1OC [Compound of formula (66)] | > 120 | > 120 |  |  | 
64 | CCCCCCCCCCCCN(C)Cc1ccc(OCCC)c(OC)c1 [Compound of formula (67)] | > 120 | 60 |  |  | 

— patent publication US20040006061A1, “Alkoxybenzylamine” (priority 2001, published 2004)
